Experimental data: patent US4950647A, “T cell immunopotentiator” (Nucleic Acid Research Institute, priority 1988, dated 1990)
Entries after “also recorded” stand apart in the source; their conditions may differ.

How the values were obtained:
[1] = test system: B cells (human peripheral blood mononuclear cells); assay: Staphylococcus aureus cowan (SAC) induced B cell proliferation; format: cell-based; set-up: 3H-thymidine incorporation: unit not given here
Procedure: (§1) Peripheral blood mononuclear cells were isolated from heparinized peripheral blood of normal healthy donors as described in Sharma, B. and S. Gupta, "Antigen-specific primary cytotoxic T lymphocyte response in acquired immune deficiency syndrome (AIDS) and AIDS related complex", Clin. Exp. Immunol., 62:296, 1985. Briefly, blood was diluted 1:1 with Hanks balanced salt solution (HBSS). Peripheral blood mononuclear cells were separated on a Ficoll-Hypaque gradient. The peripheral blood mononuclear cells recovered from the interface were washed three times with HBSS and resuspended in RPMI-1640 containing 100 U/ml penicillin, 100 μg/ml streptomycin 2mM L-glutamine (GIBCO, Grand Island, N.Y.), and 10% heat-inactivated pooled A serum (Irvine Scientific, Irvine, Calif.), hereafter referred as complete medium (CM).
Peripheral blood mononuclear cells (1×10^5 /0.2 ml/well) were incubated with different concentrations of Staphylococcus aureus cowan (1:[…] and 1:10,000 dilutions) in the presence and absence of 6-amino-(2-deoxy-α-D-erythro-pentofuranosyl)-imidazo[4,5,-C]pyridin- 4-one for 4 days. The cultures were pulsed with [^3 H]-thymidine and then the incorporation of [^3 H]thymidine was measured.
To further evaluate the effect on B cell response, human peripheral blood mononuclear cells were cultured with Staphylococcus aureus cowan in the presence and absence of 6-amino-(2-deoxy-α-D-erythro-pentofuranosyl)-imidazo[4,5,-C]pyridin- 4-one.

[2] = test system: human lymphocytes (peripheral blood mononuclear cells); assay: Concanavalin A (Con A) induced lymphocyte proliferation; format: cell-based; set-up: 3H-thymidine incorporation in Con A-stimulated cultures: unit not given here
Procedure: as §1
The ability of the compound 6-amino-(2-deoxy-α-D-erythropentofuranosyl)-imidazo[4,5,-C]pyridin-4-one to modulate lymphocyte response to plant mitogens was determined by the modified procedure of Sharma, B., O. Kohashi, M. R. Mickey, and P. T. Terasaki, "Effect of water soluble adjuvants on in vitro lymphocyte immunization", Cancer Res. 35:666, 1975. Peripheral blood mononuclear cells were cultured for 72-96 hr with phytohemagglutinin (Difco, Detroit, Mich.), Concanavalin A (Calbiochem, Calif.) or Pokeweed mitogen (GIBCO, Grand Island, N.Y.) in the presence and absence of 6-amino-(2-deoxy-α-D-erythro-pentofuranosyl)-imidazo[4,5,-C]pyridin- 4-one. The culture were set up in quadruplicate and pulsed with [^3 H]-thymidine for 16 hr and the [^3 H] thymidine incorporation was determined.
Peripheral blood mononuclear cells were cultured with different concentrations of Concanavalin A in the presence and absence of 6-amino-(2-deoxy-α-D-erythro-pentofuranosyl)-imidazo[4,5,-C]pyridin- 4-one. Lymphocyte proliferation was determined by ^3 H-thymidine incorporation.

[3] = donor 1, Con A 0.25 mg/0.2 ml, compound (0.05)
[4] = donor 1, Con A 1.0 mg/0.2 ml, compound (0.006)
[5] = donor 1, Con A 4.0 mg/0.2 ml, compound (0.038)
[6] = donor 2, Con A 0.13 mg/0.2 ml, compound (0.2)
[7] = donor 2, Con A 0.13 mg/0.2 ml, compound (0.4)
[8] = donor 2, Con A 0.25 mg/0.2 ml, compound (0.2)
[9] = donor 2, Con A 0.25 mg/0.2 ml, compound (0.4)
[10] = donor 2, Con A 2.0 mg/0.2 ml, compound (0.025)
[11] = donor 3, Con A 0.13 mg/0.2 ml, compound (0.0125)
[12] = donor 3, Con A 0.13 mg/0.2 ml, compound (0.4)
[13] = donor 3, Con A 0.25 mg/0.2 ml, compound (0.05)
[14] = donor 3, Con A 0.25 mg/0.2 ml, compound (0.4)
[15] = donor 3, Con A 2.0 mg/0.2 ml, compound (0.05)
[16] = donor 3, Con A 2.0 mg/0.2 ml, compound (O.4)
[17] = donor 4, Con A 0.05 mg/0.2 ml, compound (0.025)
[18] = donor 4, Con A 0.13 mg/0.2 ml, compound (0.05)
[19] = donor 4, Con A 0.25 mg/0.2 ml, compound (0.05)
[20] = donor 5, Con A 0.5 mg/0.2 ml, compound (0.05)
[21] = donor 5, Con A 2.0 mg/0.2 ml, compound (0.025)

`Nc1cc2c(ncn2[C@@H]2C[C@H](O)[C@@H](CO)O2)c(O)n1` [Test Compound, 6-amino-1-(2-deoxy-α-D-erythro-pentofuranosyl)imidazo[4,5-C]-pyridin-4-one] was tested, and the “suppression of SAC induced B cell proliferation” value [1] was “slight suppression of B cell proliferation in some cases”, the 3H-thymidine incorporation ([1]; SAC 1:100, 0.0125 mM) was 31582 ± 5535 and the 3H-thymidine incorporation ([1]; SAC 1:100, 0.025 mM) was 30876 ± 1757. For the same molecule, the 3H-thymidine incorporation ([1]; SAC 1:100, 0.05 mM) was 31036 ± 2225, the 3H-thymidine incorporation ([1]; SAC 1:100, 0.6 mM) was 31549 ± 1496 and the 3H-thymidine incorporation ([1]; SAC 1:1000, 0.0125 mM) was 18079 ± 829. The 3H-thymidine incorporation ([1]; SAC 1:1000, 0.025 mM) was 18897 ± 1334, the 3H-thymidine incorporation ([1]; SAC 1:1000, 0.05 mM) was 17240 ± 1634 and the 3H-thymidine incorporation ([1]; SAC 1:1000, 0.2 mM) was 16618 ± 2378. For the same molecule, the “augmenting effect on SAC induced B cell proliferation” value ([1]; listed as 6-Amino-(2-deoxy-α-D-erythro-pentofuranosyl)-imidazo[4,5,-C]pyridin-4-one) was “neither an effect on Staphylococcus aureus cowan induced B cell proliferation; also recorded: no augmenting effect”, the “increase in lymphocyte response to Concanavalin A” value [2] was “marked increase” and the “mean increase of Con A response” value ([2]; Table IV) was 109%. The “suppressive effect on Con A response” value ([2]; Table IV) was “slight suppressive effect in only one case”, the “3H-thymidine incorporation in Con A-stimulated cultures” value [2, 3] was 49279 ± 2732 and the “% Potentiation” value [2, 3] was 32%. For the same molecule, the “3H-thymidine incorporation in Con A-stimulated cultures” value [2, 4] was 71105 ± 4015, the “% Potentiation” value [2, 4] was 34% and the “3H-thymidine incorporation in Con A-stimulated cultures” value [2, 5] was 99322 ± 8655. For the same molecule, the “% Potentiation” value [2, 5] was 43%, the “3H-thymidine incorporation in Con A-stimulated cultures” value [2, 6] was 18607 ± 2157 and the “% Potentiation” value [2, 6] was 318%. The “3H-thymidine incorporation in Con A-stimulated cultures” value [2, 7] was 31068 ± 2678, the “% Potentiation” value [2, 7] was 599% and the “3H-thymidine incorporation in Con A-stimulated cultures” value [2, 8] was 44958 ± 2248. For the same molecule, the “% Potentiation” value [2, 8] was 203%, the “3H-thymidine incorporation in Con A-stimulated cultures” value [2, 9] was 48354 ± 3336 and the “% Potentiation” value [2, 9] was 226%. The “3H-thymidine incorporation in Con A-stimulated cultures” value [2, 10] was 162317 ± 10872, the “% Potentiation” value [2, 10] was 29% and the “3H-thymidine incorporation in Con A-stimulated cultures” value [2, 11] was 29693 ± 4998. The “% Potentiation” value [2, 11] was 50%, the “3H-thymidine incorporation in Con A-stimulated cultures” value [2, 12] was 39902 ± 2918 and the “% Potentiation” value [2, 12] was 102%. For the same molecule, the “3H-thymidine incorporation in Con A-stimulated cultures” value [2, 13] was 57780 ± 9762, the “% Potentiation” value [2, 13] was 36% and the “3H-thymidine incorporation in Con A-stimulated cultures” value [2, 14] was 51010 ± 3861. The “% Potentiation” value [2, 14] was 20%, the “3H-thymidine incorporation in Con A-stimulated cultures” value [2, 15] was 122692 ± 3643 and the “% Potentiation” value [2, 15] was 12%. The “3H-thymidine incorporation in Con A-stimulated cultures” value [2, 16] was 98613 ± 4737, the “% Potentiation” value [2, 16] was -11% and the “3H-thymidine incorporation in Con A-stimulated cultures” value [2, 17] was 43957 ± 6053. The “% Potentiation” value [2, 17] was 54%, the “3H-thymidine incorporation in Con A-stimulated cultures” value [2, 18] was 44234 ± 5027 and the “% Potentiation” value [2, 18] was 110%. For the same molecule, the “3H-thymidine incorporation in Con A-stimulated cultures” value [2, 19] was 39059 ± 5098, the “% Potentiation” value [2, 19] was 49% and the “3H-thymidine incorporation in Con A-stimulated cultures” value [2, 20] was 71303 ± 3633. The “% Potentiation” value [2, 20] was 33%, the “3H-thymidine incorporation in Con A-stimulated cultures” value [2, 21] was 75046 ± 1495 and the “% Potentiation” value [2, 21] was 16%.
